Where a name gives a salt, the structure may show the parent alone. Blank lines part the entries; values can stand above or below the molecule they belong to.
Legend:
[1] = 3D printing of tablets by direct powder extrusion (DPE): printability and API tolerance; settings: printing temperature 180° C.
Description: The previously blended powders were 3D printed using a M3DIMAKER™ equipped with a DPE printhead coupled with a 0.4 mm nozzle (FabRx Ltd., London, United Kingdom). Computer-aided design (CAD) models of tablets were designed using Autodesk Tinkercad (Autodesk Inc., Mill Valley, CA, U.S.A.) and processed with Repetier-Host software (Hot-World GmbH & Co. KG, Willich, Germany). To enhance powder flow, the M3DIMAKER™ was modified with a stirring element 4 (see FIG. 1).
Tablets were printed using the following parameters: printing temperature: 180° C.; first layer height: 0.6 mm, layer height: 0.15-0.30 mm (adaptive slicing), infill: 60-100%, travel speed 70 mm/s, first layer speed 5 mm/s, perimeter speed 7.5-15 mm/s, infill speed: 15-20 mm/s with zero (Oblongs) or one (Cylinders and Donuts) top layer, two bottom layers and two shells.

[2] = Thermogravimetric analysis (TGA), thermal stability; assay type: physicochemical; settings: for temperature at which mass loss / decomposition starts (thermogram): 40 to 300° C.
Protocol: TGA analyzes were carried out with a Discovery TGA (TA Instruments, Waters, LLC, U.S.A.) and data was collected and analyzed with TA Instruments Trios software and percent mass loss or onset temperature were calculated. Two different methods were utilized. Both APIs were subjected to a temperature ramp of 10° C./min starting at 40° C. and concluding at 300° C. in open aluminum pans. CD was additionally subjected to an isothermal stress test at 180° C. for 30 min.

[3] = Dissolution of printed tablets, Ph. Eur. 2.9.3, 0.1 M HCl, paddle 100 rpm, HPLC; assay type: physicochemical
Protocol: Dissolution experiments were carried out according to Ph. Eur. 10.6; 2.9.3 (EDQM, Ph. Eur.), with a Premiere 5100 Dissolution System (Distek Inc., North Brunswick Township, NJ, USA). […] The paddle speed was set to 100 rpm. Samples were taken after 5, 10, 15, 20, 30, 45, 60 and 90 min. A sinker was used for analyzes. For all small tablets and the large Oblongs a Distek “Japanese Basket” was used, whereas a custom 3D printed polylactic acid (PLA) sinker (not shown) was used for the large Cylinders and the large Donuts. If applicable, the dissolution profiles were compared using the f2 comparison (Moore and Flanner 1996).
The API content of the powder blend and the dissolution samples were analyzed and evaluated with a Nexera XR HPLC system and LabSolutions software version 6.83 (both Shimadzu Corp., Nakagyo-ku, Kyoto, Japan). The Nexera XR HPLC system consists of two degassing units (DGU-20A5R) and two HPLC-pumps (LC-20ADXR) as well as an autosampler (SIL-20ACXR) a column oven (FCV-34AH) and a communication bus module (CBM-20A). Samples were dissolved and diluted in 0.1 M HCl. Turbid samples were filtered through a 0.22 μm PTFE Filter. Prior to each analytical sequence, the column was equilibrated for 30 min and the autosampler purged for 5 min. HPLC samples were measured in duplicate with an injection volume of 20 μL. […]

[4] = assay type: physicochemical
Protocol: DSC analyzes were carried out with a DSC 1 device (Mettler-Toledo, LLC, Columbus, OH, USA) operated with STARe Software V16.10. Each single component of the formulation as well as the powder blend and the extruded filament (both P25/29-M) were analyzed. Three different methods were utilized. Nitrogen was used as a purging gas at a flow rate of 50 mL/min. Every sample was heated to 250° C. (10° C./min) and kept at this temperature for 5 min. CD, LD, mannitol and the powder blend were also heated (10° C./min) to and kept at 185° C. (10 min), then cooled to 25° C. (20° C./min) and kept at this temperature for 5 min and reheated to 185° C. (10° C./min) and kept at this temperature for 10 min. Ultimately, CD and the powder blend were also heated to 182° C. (10° C./min) and kept at this temperature for 30 min.

[5] = Particle size analysis by laser light diffraction; assay type: physicochemical; settings: Fraunhofer method
Protocol: Laser diffraction measurements were performed with a LS 13 320 laser diffraction particle size analyzer equipped with a Tornado DPS module (Beckman Coulter Inc, Brea, CA, USA). Each API, excipient and the blend of batch P25/29-M were measured five times. Particle sizes were calculated using the Fraunhofer method.

[6] = Stability analysis: storage in constant climate chambers, API content by HPLC; assay type: physicochemical; settings: in P25/29-M small Donuts
Protocol: Small Donuts of P25/29-M were packed in FDS/Proud packaging material Unit Dose Bags (UDB) using a FDS II Proud 336 device (Baxter International Inc., Deerfield, Il, USA) or brown glass stored in constant climate chambers (KBF P 240 and KBF S 240; Binder GmbH; Tuttlingen, Germany). […] Samples packed in UDB were stored for 7 days or 28 days in each of the previously mentioned conditions. Samples in brown glass were stored for 28 days in the 25° C./60% RH condition. After storage, the API contents of the samples were analyzed via HPLC as described in 2.2.6. Each sampling time comprised three samples.

[7] = Extrusion experiments with BZ in place of CD, extrudate analyzed via HPLC; assay type: physicochemical; settings: extrusion 125-155° C.
Protocol: For LD and BZ analytics a separate HPLC method was developed for the same equipment. The mobile phase was a 95:5 mixture of aforementioned hydrogen phosphate buffer (pH 2.5) and methanol. LD was detected at 280 nm and BZ at 268 nm. Retention times were 3.41 min (BZ) and 4.41 min (LD). The calibration for LD was the same as in the above-named method and BZ was calibrated in the same range as CD.
Following the dissolution experiments and the subsequently adapted thermoanalyses to further investigate the thermolability of CD, extrusion experiments with BZ were conducted. For these experiments, the CD (P25/29-M) was substituted with BZ. The formulation was extruded between 125-155° C. and the extrudate analyzed via HPLC.

- loss in mass over the first 10 min (isothermal TGA) ([2]; 180° C. isothermal): more than 20%
- mass loss in the thermogram (release of hydrate water) ([2]; between ca. 90-140° C., ramp 10° C./min): about 8%
- temperature at which mass loss / decomposition starts (thermogram) ([2]; ramp 10° C./min): about 195 °C
- substance lost during extrusion ([3]; CD, much higher extrusion temperatures (printing 180° C.)): 30-40%
- CD recovered from the completely dissolved tablets ([3]; after the printing process): 60-70%
- time of exposition until decomposition begins (isothermal DSC) ([4]; 182° C. isothermal): 7 to 8 min
- particle size d50 [5]: 15.3 μm
- storage stability (in words) ([6]; brown glass, and 25/60, 7 in UDB): moderate stability
SMILES: C[C@@](Cc1ccc(O)c(O)c1)(NN)C(=O)O [CD, Carbidopa]
- tolerance of the printing process (in words) [1]: degraded partially during the printing process

- particle size d50 [5]: 345 μm
SMILES: OC[C@@H](O)[C@@H](O)[C@H](O)[C@H](O)CO [mannitol, Mannitol]

- substance lost during extrusion [7]: More than 70%
SMILES: NC(CO)C(=O)NNCc1ccc(O)c(O)c1O (stereo not shown) [BZ, Benserazide-HCl]

- temperature at which mass loss / decomposition starts (thermogram) ([2]; ramp 10° C./min): about 275 °C
- temperature up to which no degradation was found (DSC and TGA) [4]: > 250 °C
- particle size d50 [5]: 51.8 μm
SMILES: N[C@@H](Cc1ccc(O)c(O)c1)C(=O)O [LD, Levodopa]
- tolerance of the printing process (in words) [1]: able to tolerate the printing temperature
- storage time tolerated ([6]; both conditions (25/60, 40/75) and packagings): at least 28 days
